Results from ChEMBL document CHEMBL2169878 (J Med Chem, 2012).
Calls of active or inactive are those of the source. No cut-off for these calls is given here.

Legend:
[1] = Cytotoxicity against human HepG2 cells after 24 hrs by neutral red dye uptake assay; format: cell-based; conditions: read-out: TC50
[2] = Cytotoxicity against mouse NIH3T3 cells after 24 hrs by neutral red dye uptake assay; format: cell-based; conditions: read-out: TC50
[3] = target: T1, Chloroquine resistance transporter (Plasmodium falciparum) (UniProt Q9N623); assay: Inhibition of chloroquine-resistant Plasmodium falciparum Dd2 CRT expressed in Xenopus laevis oocyte assessed as inhibition of [3H]chloroquine uptake at 100 uM measured from 1 to 2 hrs
T1 sequence (whole entry): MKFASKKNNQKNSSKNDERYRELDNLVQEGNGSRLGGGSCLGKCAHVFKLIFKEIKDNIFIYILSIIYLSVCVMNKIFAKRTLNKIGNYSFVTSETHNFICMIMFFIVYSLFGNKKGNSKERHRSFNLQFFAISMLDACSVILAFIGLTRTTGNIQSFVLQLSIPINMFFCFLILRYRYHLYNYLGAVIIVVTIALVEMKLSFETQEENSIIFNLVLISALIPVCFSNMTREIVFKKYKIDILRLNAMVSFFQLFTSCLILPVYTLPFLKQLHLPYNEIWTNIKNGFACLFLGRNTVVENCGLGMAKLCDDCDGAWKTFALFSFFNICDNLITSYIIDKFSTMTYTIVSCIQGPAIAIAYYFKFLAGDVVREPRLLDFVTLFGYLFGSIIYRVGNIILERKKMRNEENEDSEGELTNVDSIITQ

Plasmodium falciparum [4] = assay: Antiplasmodial activity against chloroquine-resistant Plasmodium falciparum W2 infected in human RBC after 72 hrs by parasite lactate dehydrogenase assay; format: functional, organism-based; conditions: W2, 72 h
Plasmodium falciparum [5] = assay: Resistance ratio of IC50 for chloroquine-resistant Plasmodium falciparum W2 to IC50 for chloroquine-sensitive Plasmodium falciparum D10; format: functional
Plasmodium falciparum [6] = assay: Antiplasmodial activity against chloroquine-sensitive Plasmodium falciparum D10 infected in human RBC after 72 hrs by parasite lactate dehydrogenase assay; format: functional, organism-based; conditions: D10, 72 h
Plasmodium falciparum [7] = assay: Antiplasmodial activity against chloroquine-resistant Plasmodium falciparum K1 infected in human erythrocytes assessed as inhibition of [3H]hypoxanthine incorporation incubated for 48 hrs prior to [3H]hypoxanthine addition measured after 48 hrs by liquid scintillation counting; format: functional, organism-based
Plasmodium falciparum [8] = assay: Antiplasmodial activity against chloroquine-sensitive Plasmodium falciparum NF54 infected in human erythrocytes assessed as inhibition of [3H]hypoxanthine incorporation incubated for 48 hrs prior to [3H]hypoxanthine addition measured after 48 hrs by liquid scintillation counting; format: functional, organism-based
Plasmodium falciparum [9] = assay: Resistance ratio of IC50 for chloroquine-resistant Plasmodium falciparum K1 to IC50 for chloroquine-sensitive Plasmodium falciparum NF54; format: functional

| SMILES | CC50 at 24 h [1] [nM] | CC50 at 24 h [2] [nM] | inhibition [3] | IC50 (Plasmodium falciparum [4]) [nM] | Ratio IC50 (Plasmodium falciparum [5]) | IC50 (Plasmodium falciparum [6]) [nM] | IC50 (Plasmodium falciparum [7]) [nM] | IC50 (Plasmodium falciparum [8]) [nM] | Ratio IC50 (Plasmodium falciparum [9]) |
| --- | --- | --- | --- | --- | --- | --- | --- | --- | --- |
| Clc1ccccc1C(c1ccccc1)(c1ccccc1)n1ccnc1 [CLOTRIMAZOLE] | > 48000 | > 48000 |  |  |  |  |  |  |  |
| CN1CCN(Cc2ccc(C(Nc3ccnc4cc(Cl)ccc34)c3ccc(Cl)cc3)cc2)CC1 (racemic) |  |  | Active | 42 | 2 | 21 |  |  |  |
| COc1cc(C(Nc2ccnc3cc(Cl)ccc23)c2ccc(Cl)cc2)ccc1CN1CCCC1 (racemic) |  |  |  | 48 |  | 31 |  |  |  |
| Fc1cc(C(Nc2ccnc3cc(Cl)ccc23)c2cccc(Cl)c2)ccc1CN1CCCC1 (racemic) |  |  | 70% | 25 |  | 9 |  |  |  |
| Clc1ccc(C(Nc2ccnc3cc(Cl)ccc23)c2ccc(CN3CCN(Cc4ccccc4)CC3)cc2)cc1 (racemic) |  |  |  | 790 | 4.8 | 163 |  |  |  |
| Clc1cccc(C(Nc2ccnc3cc(Cl)ccc23)c2ccc(CN3CCCC3)c(Cl)c2)c1 (racemic) |  |  |  | 50 |  | 57 | 19 | 13 |  |
| FC(F)(F)c1ccc2c(NC(c3cccc(Cl)c3)c3ccc(CN4CCCC4)c(Cl)c3)ccnc2c1 (racemic) |  |  |  | 111 |  | 74 | 46 | 34 |  |
| COc1ccc2nccc(NC(c3ccc(Cl)cc3)c3ccc(CN4CCNCC4)cc3)c2c1 (racemic) |  |  |  | 163 | 2.4 | 67 | 58 | 21 | 2.8 |
| COc1ccc2nccc(NC(c3ccc(Cl)cc3)c3ccc(CN4CCCC4)c(Cl)c3)c2c1 (racemic) |  |  |  | 76 |  | 24 |  |  |  |
| Clc1ccc(C(c2ccc(CN3CCCC3)cc2)N2CCN(c3ccnc4cc(Cl)ccc34)CC2)cc1 (racemic) |  |  | 58% | 735 |  | 631 | 156 | 88 |  |
| Clc1ccc(C(Nc2ccnc3cc(Cl)ccc23)c2ccc(CN3CCCC3)cc2)cc1 (racemic) |  |  | 70% |  | 1.6 |  |  |  | 1.1 |
| Clc1ccc(C(c2ccccc2)(c2ccc(CN3CCCC3)cc2)n2ccnc2)cc1 (racemic) |  |  | Active |  |  |  |  |  |  |
| Clc1ccc(C(Nc2ccnc3cc(Cl)ccc23)c2ccc(CN3CCN(Cc4ccc(C(Nc5ccnc6cc(Cl)ccc56)c5ccc(Cl)cc5)cc4)CC3)cc2)cc1 (racemic) |  |  |  | 98 | 0.5 | 190 | 56 | 89 | 0.6 |
| COc1ccc2nccc(NC(c3ccc(Cl)cc3)c3ccc(CN4CCCC4)c(F)c3)c2c1 (racemic) |  |  |  | 69 |  | 58 | 33 | 25 |  |
| COc1ccc2nccc(NC(c3cccc(Cl)c3)c3ccc(CN4CCCC4)c(F)c3)c2c1 (racemic) |  |  |  | 101 |  | 41 |  |  |  |
| Clc1cccc(C(Nc2ccnc3cc(Cl)ccc23)c2ccc(CN3CCOCC3)c(Cl)c2)c1 (racemic) |  |  |  | 277 |  | 442 | 107 | 47 |  |
| COc1ccc2nccc(NC(c3cccc(Cl)c3)c3ccc(CN4CCOCC4)c(Cl)c3)c2c1 (racemic) |  |  |  | 229 |  | 198 | 114 | 81 |  |
| Clc1cccc(C(Nc2ccnc3cc(Cl)ccc23)c2ccc(CN3CCN(c4ccnc5cc(Cl)ccc45)CC3)c(Cl)c2)c1 (racemic) |  |  |  | 58 |  | 104 | 10 | 83 |  |
| COc1ccc(CCN(C)CCCC(C#N)(c2ccc(OC)c(OC)c2)C(C)C)cc1OC (centres undefined) |  |  | 74% |  |  |  |  |  |  |
| Clc1ccc(C(c2ccc(Cl)cc2)(c2ccc(CN3CCCC3)cc2)N2CCN(c3ccnc4cc(Cl)ccc34)CC2)cc1 |  |  | 42% | 582 |  | 277 | 92 | 91 |  |
